Positions of bridges follow the written chain, without caps; N, C: chain ends. Non-standard residues stand in square brackets, D forms with d. Residues, ends and D or L forms follow the SMILES beside them. ξ: configuration not given here. *: point of attachment. Phe(4-COOH) = N[C@@H](Cc1ccc(C(=O)O)cc1)C(=O)O; Bip = N[C@@H](Cc1ccc(-c2ccccc2)cc1)C(=O)O; Phe(3-OMe) = COc1cccc(C[C@H](N)C(=O)O)c1; Phe(3-Me) = Cc1cccc(C[C@H](N)C(=O)O)c1; Ala(cPr) = N[C@@H](CC1CC1)C(=O)O; NMeF = CN[C@@H](Cc1ccccc1)C(=O)O; Cha = N[C@@H](CC1CCCCC1)C(=O)O; hSer = N[C@@H](CCO)C(=O)O; Carboxymethyl = O=C(O)C*; NMeA = CN[C@@H](C)C(=O)O; Orn = NCCC[C@H](N)C(=O)O; Dab = NCC[C@H](N)C(=O)O; Dap = NC[C@H](N)C(=O)O; NBuGly = CCCCNCC(=O)O; ξV = CC(C)C(N)C(=O)O; Sar = CNCC(=O)O
Each compound was assayed against T1, human PD-1 (Jurkat-PD-1 cells) / PE-labeled human PD-L1-Ig (Homo sapiens, UniProt Q15116) (assay: Jurkat-PD-1 Cell Binding High-Content Screening Assay (CBA); Jurkat hPD1-PDL1 assay). Conditions: Jurkat cell line over-expressing human PD-1; PE-labeled PD-L1-Ig 20 nM final; compound incubated 2 hours at 37° C.; read-out: Jurkat HPD1-PDL1 IC50.
T1 construct: expressed in transfected cells; host or cells: Jurkat cell line over-expressing human PD-1
T1 sequence (Q15116 25-288): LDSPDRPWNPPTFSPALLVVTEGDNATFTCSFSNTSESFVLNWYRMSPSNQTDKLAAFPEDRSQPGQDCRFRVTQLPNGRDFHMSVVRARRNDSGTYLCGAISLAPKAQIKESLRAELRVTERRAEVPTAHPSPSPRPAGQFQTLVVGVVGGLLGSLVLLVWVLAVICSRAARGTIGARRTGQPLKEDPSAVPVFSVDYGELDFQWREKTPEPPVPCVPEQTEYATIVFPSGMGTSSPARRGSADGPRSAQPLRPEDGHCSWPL
How it was run: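 Jurkat-hPD-1 cells; cpd 2 h, 37° C; then PE-PD-L1-Ig 20 nM final in DMEM/10% FCS; high-content imaging read-out.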
With `CC(C)C[C@@H]1NC(=O)[C@H](CCCNC(=N)N)NC(=O)[C@H](Cc2ccccc2)N(C)C(=O)[C@H](CCN)NC(=O)[C@H](CCCNC(=N)N)NC(=O)[C@H](Cc2ccc(-c3ccccc3)cc2)NC(=O)[C@H](C(C)C)NC(=O)[C@H](Cc2c[nH]c3ccccc23)NC(=O)[C@H](CC(=O)O)NC(=O)[C@H](Cc2ccc(O)cc2)NC(=O)[C@H](Cc2ccccc2)NC(=O)CSC[C@@H](C(=O)NCC(N)=O)NC(=O)[C@H](CO)NC(=O)[C@H](C(C)C)NC1=O` [Example 1255] ({CH2CO}-FYDWV[Bip]R[Dab][NMeF]RLVSCG-NH2; thioether N-14) the IC50 was 430 nM. Work on `Cc1cccc(C[C@@H]2NC(=O)[C@H](CC(=O)O)NC(=O)[C@H](Cc3ccc(OCC(=O)O)cc3)NC(=O)[C@H](CN)NC(=O)CSC[C@@H](C(=O)N[C@@H](C)C(N)=O)NC(=O)[C@H]([C@@H](C)O)NC(=O)[C@H](C(C)C)NC(=O)[C@H](CC3CCCCC3)NC(=O)[C@H](CCN)NC(=O)[C@H](Cc3ccccc3)N(C)C(=O)[C@H](CCCN)NC(=O)[C@H](CCC(=O)O)NC(=O)[C@H](Cc3ccc(-c4ccccc4)cc3)NC(=O)C(C(C)C)NC2=O)c1` (stereo partly shown) [Example 1448] ({CH2CO}-[Dap]Y(Carboxymethyl)D[Phe(3-Me)][ξV][Bip]E[Orn][NMeF][Dab][Cha]VTCA-NH2; thioether N-14) yielded an IC50 of 30 nM. For `CC(C)C[C@@H]1NC(=O)[C@H](Cc2c[nH]c3ccccc23)NC(=O)[C@H](CC(=O)O)NC(=O)[C@H](Cc2ccc(O)cc2)NC(=O)[C@H](Cc2ccccc2)NC(=O)CSC[C@@H](C(=O)NCC(N)=O)NC(=O)[C@H](CO)NC(=O)[C@H](C(C)C)NC(=O)[C@H](CC(C)C)NC(=O)[C@H](CCCN)NC(=O)CN(C)C(=O)[C@H](C)N(C)C(=O)[C@H](C(C)C)NC(=O)[C@H](Cc2ccc(-c3ccccc3)cc2)NC1=O` [Example 1079] ({CH2CO}-FYDWL[Bip]V[NMeA][Sar][Orn]LVSCG-NH2; thioether N-14), the IC50 was 220 nM. In the case of `CC(C)C[C@@H]1NC(=O)[C@H](CCCNC(=N)N)NC(=O)[C@H](Cc2ccccc2)N(C)C(=O)[C@H](C)N(C)C(=O)[C@H](CCCNC(=N)N)NC(=O)[C@H](Cc2ccc(-c3ccccc3)cc2)NC(=O)[C@H](C(C)C)NC(=O)[C@H](Cc2c[nH]c3ccccc23)NC(=O)[C@H](CC(=O)O)NC(=O)[C@H](Cc2ccc(O)cc2)NC(=O)[C@H](CC(N)=O)NC(=O)CSC[C@@H](C(=O)NCC(N)=O)NC(=O)[C@H](CO)NC(=O)[C@H](C(C)C)NC1=O` [Example 1032] ({CH2CO}-NYDWV[Bip]R[NMeA][NMeF]RLVSCG-NH2; thioether N-14), the IC50 is reported as 60 nM. `CCCCN1CC(=O)N[C@@H](CCN)C(=O)N[C@@H](CC2CCCCC2)C(=O)N[C@@H](C(C)C)C(=O)N[C@@H](CO)C(=O)N[C@H](C(=O)N[C@@H](CCN)C(N)=O)CSCC(=O)N[C@@H]([C@@H](C)O)C(=O)N[C@@H](Cc2ccc(OCC(=O)O)cc2)C(=O)N[C@@H](CC(=O)O)C(=O)N[C@@H](Cc2cccc(C)c2)C(=O)N[C@@H](Cc2ccc(OCC(=O)O)cc2)C(=O)N[C@@H](Cc2ccc(-c3ccccc3)cc2)C(=O)N[C@@H](Cc2ccc(OCC(=O)O)cc2)C(=O)N(C)[C@@H](C)C1=O` [Example 1186] ({CH2CO}-TY(Carboxymethyl)D[Phe(3-Me)]Y(Carboxymethyl)[Bip]Y(Carboxymethyl)[NMeA][NBuGly][Dab][Cha]VSC[Dab]-NH2; thioether N-14) gave an IC50 of 380 nM. `CC(C)C[C@@H]1NC(=O)[C@H](Cc2ccccc2)NC(=O)[C@H](CC(=O)O)NC(=O)[C@H](Cc2ccc(O)cc2)NC(=O)[C@H](Cc2ccccc2)NC(=O)CSC[C@@H](C(=O)NCC(N)=O)NC(=O)[C@H](CO)NC(=O)[C@H](C(C)C)NC(=O)[C@H](CC(C)C)NC(=O)[C@H](CC(N)=O)NC(=O)CN(C)C(=O)[C@H](C)N(C)C(=O)[C@H](C(C)C)NC(=O)[C@H](Cc2ccc(-c3ccccc3)cc2)NC1=O` [Example 1088] ({CH2CO}-FYDFL[Bip]V[NMeA][Sar]NLVSCG-NH2; thioether N-14) gave an IC50 of 250 nM. `Cc1cccc(C[C@@H]2NC(=O)[C@H](CC(=O)O)NC(=O)[C@H](Cc3ccc(O)cc3)NC(=O)[C@H](Cc3ccccc3)NC(=O)CSC[C@@H](C(=O)N[C@@H](C)C(N)=O)NC(=O)[C@H](CO)NC(=O)[C@H](C(C)C)NC(=O)[C@H](CC(C)C)NC(=O)[C@H](CC(N)=O)NC(=O)CN(C)C(=O)[C@H](C)N(C)C(=O)[C@H](C(C)C)NC(=O)[C@H](Cc3ccc(-c4ccccc4)cc3)NC(=O)[C@H](CC(C)C)NC2=O)c1` [Example 1053] ({CH2CO}-FYD[Phe(3-Me)]L[Bip]V[NMeA][Sar]NLVSCA-NH2; thioether N-14) gave an IC50 of 120 nM. In the case of `CC(C)C[C@@H]1NC(=O)[C@H](Cc2c[nH]c3ccccc23)NC(=O)[C@H](CC(=O)O)NC(=O)[C@H](Cc2ccccc2)NC(=O)[C@H](Cc2ccccc2)NC(=O)CSC[C@@H](C(=O)N[C@@H](C)C(N)=O)NC(=O)[C@H](CO)NC(=O)[C@H](C(C)C)NC(=O)[C@H](CC(C)C)NC(=O)[C@H](CC(N)=O)NC(=O)CN(C)C(=O)[C@H](C)N(C)C(=O)[C@H](C(C)C)NC(=O)[C@H](Cc2ccc(-c3ccccc3)cc2)NC1=O` [Example 1165] ({CH2CO}-FFDWL[Bip]V[NMeA][Sar]NLVSCA-NH2; thioether N-14), the IC50 is reported as 900 nM. Compound `CC(C)C[C@@H]1NC(=O)[C@H](CCCNC(=N)N)NC(=O)[C@H](Cc2ccccc2)N(C)C(=O)[C@H](C)N(C)C(=O)[C@H](CCCNC(=N)N)NC(=O)[C@H](Cc2ccc(-c3ccccc3)cc2)NC(=O)[C@H](C(C)C)NC(=O)[C@H](Cc2c[nH]c3ccccc23)NC(=O)[C@H](CC(=O)O)NC(=O)[C@H](Cc2ccc(O)cc2)NC(=O)[C@H](CN)NC(=O)CSC[C@@H](C(=O)NCC(N)=O)NC(=O)[C@H](CO)NC(=O)[C@H](C(C)C)NC1=O` [Example 1264] ({CH2CO}-[Dap]YDWV[Bip]R[NMeA][NMeF]RLVSCG-NH2; thioether N-14) has an IC50 of 160 nM. In the case of `COc1cccc(C[C@@H]2NC(=O)[C@H](CC(=O)O)NC(=O)[C@H](Cc3ccc(O)cc3)NC(=O)[C@H](Cc3ccccc3)NC(=O)CSC[C@@H](C(=O)N[C@@H](C)C(N)=O)NC(=O)[C@H](CO)NC(=O)[C@H](C(C)C)NC(=O)[C@H](CC(C)C)NC(=O)[C@H](CC(N)=O)NC(=O)[C@H]3CCCN3C(=O)[C@H](C)N(C)C(=O)[C@H](C(C)C)NC(=O)[C@H](Cc3ccc(-c4ccccc4)cc3)NC(=O)[C@H](CC(C)C)NC2=O)c1` [Example 1022] ({CH2CO}-FYD[Phe(3-OMe)]L[Bip]V[NMeA][dP]NLVSCA-NH2; thioether N-14), the IC50 is reported as 10 nM. `CC(C)C[C@@H]1NC(=O)[C@H](CC(N)=O)NC(=O)CN(C)C(=O)[C@H](C)N(C)C(=O)[C@H](C(C)C)NC(=O)[C@H](Cc2ccc(-c3ccccc3)cc2)NC(=O)[C@H](CC2CC2)NC(=O)[C@H](Cc2c[nH]c3ccccc23)NC(=O)[C@H](CC(=O)O)NC(=O)[C@H](Cc2ccc(O)cc2)NC(=O)[C@H](Cc2ccccc2)NC(=O)CSC[C@@H](C(=O)N[C@@H](C)C(N)=O)NC(=O)[C@H](CO)NC(=O)[C@H](C(C)C)NC1=O` [Example 1155] ({CH2CO}-FYDW[Ala(cPr)][Bip]V[NMeA][Sar]NLVSCA-NH2; thioether N-14) gave an IC50 of 810 nM. Compound `CC(C)C[C@@H]1NC(=O)[C@H](C)NC(=O)[C@H](Cc2ccccc2)N(C)C(=O)[C@H](C)N(C)C(=O)[C@H](CCCNC(=N)N)NC(=O)[C@H](Cc2ccc(-c3ccccc3)cc2)NC(=O)[C@H](C(C)C)NC(=O)[C@H](Cc2c[nH]c3ccccc23)NC(=O)[C@H](CC(=O)O)NC(=O)[C@H](Cc2ccc(O)cc2)NC(=O)[C@H](Cc2ccccc2)NC(=O)CSC[C@@H](C(=O)NCC(N)=O)NC(=O)[C@H](CO)NC(=O)[C@H](C(C)C)NC1=O` [Example 1209] ({CH2CO}-FYDWV[Bip]R[NMeA][NMeF]ALVSCG-NH2; thioether N-14) has an IC50 of 780 nM. `COc1ccc(C[C@@H]2NC(=O)CSC[C@@H](C(=O)NCC(N)=O)NC(=O)[C@H](CO)NC(=O)[C@H](C(C)C)NC(=O)[C@H](CC(C)C)NC(=O)[C@H](CCCNC(=N)N)NC(=O)[C@H](Cc3ccccc3)N(C)C(=O)[C@H](C)N(C)C(=O)[C@H](CCCNC(=N)N)NC(=O)[C@H](Cc3ccc(-c4ccccc4)cc3)NC(=O)[C@H](C(C)C)NC(=O)[C@H](Cc3c[nH]c4ccccc34)NC(=O)[C@H](CC(=O)O)NC(=O)[C@H](Cc3ccc(O)cc3)NC2=O)cc1` [Example 1247] ({CH2CO}-Y(Me)YDWV[Bip]R[NMeA][NMeF]RLVSCG-NH2; thioether N-14) gave an IC50 of 230 nM. With `CC(C)C[C@@H]1NC(=O)[C@H](Cc2c[nH]c3ccccc23)NC(=O)[C@H](CC(=O)O)NC(=O)[C@H](Cc2ccc(O)cc2)NC(=O)[C@H](Cc2ccccc2)NC(=O)CSC[C@@H](C(=O)N[C@@H](C)C(N)=O)NC(=O)[C@H](CCO)NC(=O)[C@H](C(C)C)NC(=O)[C@H](CC(C)C)NC(=O)[C@H](CC(N)=O)NC(=O)CN(C)C(=O)[C@H](C)N(C)C(=O)[C@H](C(C)C)NC(=O)[C@H](Cc2ccc(-c3ccccc3)cc2)NC1=O` [Example 1159] ({CH2CO}-FYDWL[Bip]V[NMeA][Sar]NLV[hSer]CA-NH2; thioether N-14) the IC50 was 860 nM. `CC(C)C[C@@H]1NC(=O)[C@H](CCCNC(=N)N)NC(=O)[C@H](Cc2ccccc2)N(C)C(=O)[C@H](C)N(C)C(=O)[C@H](CCCNC(=N)N)NC(=O)[C@H](Cc2ccc(-c3ccccc3)cc2)NC(=O)[C@H](C(C)C)NC(=O)[C@H](Cc2c[nH]c3ccccc23)NC(=O)[C@H](CC(=O)O)NC(=O)[C@H](Cc2ccc(C(=O)O)cc2)NC(=O)[C@H](Cc2cnc[nH]2)NC(=O)CSC[C@@H](C(=O)NCC(N)=O)NC(=O)[C@H](CO)NC(=O)[C@H](C(C)C)NC1=O` [Example 1291] ({CH2CO}-H[Phe(4-COOH)]DWV[Bip]R[NMeA][NMeF]RLVSCG-NH2; thioether N-14) was tested, and the IC50 was 90 nM. `CC(C)C[C@@H]1NC(=O)[C@H](Cc2c[nH]c3ccccc23)NC(=O)[C@H](CC(=O)O)NC(=O)[C@H](Cc2ccc(O)cc2)NC(=O)[C@H](Cc2ccccc2)NC(=O)CSC[C@@H](C(=O)NCC(N)=O)NC(=O)[C@H]([C@@H](C)O)NC(=O)[C@H](C(C)C)NC(=O)[C@H](CC(C)C)NC(=O)[C@H](CC(N)=O)NC(=O)[C@H]2CCCN2C(=O)[C@H](C)N(C)C(=O)[C@H](C(C)C)NC(=O)[C@H](Cc2ccc(-c3ccccc3)cc2)NC1=O` [Example 1395] ({CH2CO}-FYDWL[Bip]V[NMeA][dP]NLVTCG-NH2; thioether N-14) was tested, and the IC50 was 160 nM.

Source: patent publication US20240360178A1, “MACROCYCLIC IMMUNOMODULATORS” (Bristol-Myers Squibb Company, priority 2021, published 2024)
